This is an account of results in US20240294551A1 (AMGEN INC., priority 2022, published 2024).

Each structure is given as a SMILES string. Where a name gives a salt, the structure may show the parent alone. Read-outs that look alike come from different tables or passages of the source.

In experiment [1] the test system is Phosphorylation of ERK1/2 in AsPC-1 cells. In words: Phospho-ERK1/2 MSD Assay. The class given is cell-based, human. In a few lines: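 Read-out: MSD electrochemiluminescent detection of phosphorylated ERK1/2 in whole-cell lysates, fitted to a 4-parameter logistic curve for IC50. Prior to lysis, AsPC-1 cells (25,000 per well) received a 2 h compound dose-response at 37 °C.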

The test system of experiment [2] is AsPC-1 cells. Description: AsPC-1 CTG Assay (CellTiter-Glo cell viability). The class given is cell-based, human. The following applies: first value of the cell, read-out: G12D/C/V Cell Proliferation CTG (72 h) AsPC-1. As for the experimental part: AsPC-1 and SW620 CTG Assay Protocols
AsPC-1 (human pancreatic adenocarcinoma; ATCC CRL-1682) or SW620 (human colon adenocarcinoma; ATCC CCL-227) cells were cultured in RPMI 1640 medium containing 10% fetal bovine serum and 1× penicillin/streptomycin/L-glutamine. Cells were seeded in 384-well plates at a density of 3.33E+04 cells/mL and incubated at 37° C., 5% CO2, overnight. Serially-diluted compound or DMSO was added to the cells, and plates were incubated at 37° C., 5% CO2 for 72 h. Cell viability was measured using a CellTiter-Glo® Luminescent Cell Viability Assay kit (Promega) according to the manufacturer's protocol. The luminescence signal of treated samples was normalized to DMSO control, and data were analyzed using a 4-parameter logistic model to calculate IC50 values.
A general note: In ATP-based viability assays light output follows the ATP content of the culture.

Experiment [3] deals with GDP-bound KRAS protein (aa 1-169), containing both G12D and C118A amino acid substitutions (Homo sapiens (Human), UniProt P01116, C118A/G12D). Description: KRAS G12D Coupled Nucleotide Exchange Assay. The class given is biochemical.
Experiment [4] has as its target His-tagged KRAS G12D protein (Homo sapiens (Human), UniProt P01116, G12D). In words: KRAS G12D TR-FRET Assay. Type of experiment: binding. In a few lines:
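His-tagged KRAS G12D (diluted to 20 nM in pH 7.4 HEPES buffer with 10 mM MgCl2 and 10 μM GDP) was preincubated with titrated compound for 30 min at room temperature. Biotinylated KRPep-2d peptide (diluted to 20 nM) was then added for 1 h, and displacement was monitored by TR-FRET.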
(Time-resolved FRET reads energy transfer from a long-lived donor to a nearby acceptor.)

Setting [5] is: 2 h, read-out: 2 h p-ERK (AsPC-1 cells), IC50.
Setting [6] is: read-out: KRAS G12D Coupled Exchange IC50.
[7] abbreviates: read-out: KRAS G12D Binding IC50.
[8] abbreviates: Homo sapiens, ASPC1, 2 h, read-out: 2 h p-ERK (AsPC-1 cells), IC50.
[9] abbreviates: Homo sapiens, ASPC1, 72 h, AsPC-1, 72 h.
Setting [10] is: Homo sapiens, ASPC1, 2 h, read-out: 2 h p-ERK (AsPC-1 cells).
Where [11] appears, read: Homo sapiens, ASPC1, 72 h, AsPC-1 cells (G12D), 72 h.
Where [12] appears, read: 2 hours compound pre-incubation, read-out: KRAS G12D Coupled Exchange.
Setting [13] is: TR-FRET, read-out: KRAS G12D Binding.

Sequence of GDP-bound KRAS protein (aa 1-169), containing both G12D and C118A amino acid substitutions (P01116 other isoform, or with tags, fused parts or gaps G12D/C118A): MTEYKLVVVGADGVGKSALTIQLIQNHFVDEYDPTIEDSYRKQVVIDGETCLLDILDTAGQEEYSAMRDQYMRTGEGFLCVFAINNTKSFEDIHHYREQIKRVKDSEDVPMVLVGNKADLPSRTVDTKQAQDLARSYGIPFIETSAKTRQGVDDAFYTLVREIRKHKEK
Sequence of His-tagged KRAS G12D protein (P01116 other isoform, or with tags, fused parts or gaps G12D): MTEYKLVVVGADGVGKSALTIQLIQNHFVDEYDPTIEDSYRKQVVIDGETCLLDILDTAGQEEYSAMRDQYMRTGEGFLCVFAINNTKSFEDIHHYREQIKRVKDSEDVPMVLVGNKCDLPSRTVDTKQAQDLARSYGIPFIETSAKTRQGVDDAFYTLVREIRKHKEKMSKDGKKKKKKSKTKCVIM

As for `Cc1c2ncc3c(nc(OC[C@@]45CCCN4C[C@H](F)C5)nc13)N1CCOC[C@H](C1)OC(=O)OCCCc1c(Cl)cc3[nH]ncc3c1-2` (atropisomer, axis not shown) [Example 341, (26S)-18-chloro-4-(((2R,7aS)-2-fluorotetrahydro-1H-pyrrolo[1,2-a]pyrrol-7a(5H)-yl)methoxy)-32-methyl-23,25,28-trioxa-1,3,5,9,14,15-hexaazahexacyclo[24.4.1.1~6,10~.0~2,7~.0~11,19~.0~12,16~]dotriaconta-2,4,6,8,10(32),11,13,16,18-nonaen-24-one], the IC50 was found to be 65.5 nM in experiment [1] (setting [5]); 889 nM in experiment [2] (AsPC-1, 72 h); 6 nM in experiment [3] (setting [6]); 10 nM in experiment [4] (setting [7]).

For the compound `Cc1c2ncc3c(nc(OC[C@@]45CCCN4C[C@H](F)C5)nc13)N1CCOC[C@H](C1)OC(=O)OCCCc1c(Cl)cc3[nH]ncc3c1-2` (atropisomer, axis not shown) [Example 342, (26S)-18-chloro-4-(((2R,7aS)-2-fluorotetrahydro-1H-pyrrolo[1,2-a]pyrrol-7a(5H)-yl)methoxy)-32-methyl-23,25,28-trioxa-1,3,5,9,14,15-hexaazahexacyclo[24.4.1.1~6,10~.0~2,7~.0~11,19~.0~12,16~]dotriaconta-2,4,6,8,10(32),11,13,16,18-nonaen-24-one], the IC50 is 332 nM in experiment [1] (setting [5]); 3060 nM in experiment [2] (AsPC-1, 72 h); 23 nM in experiment [3] (setting [6]); 47 nM in experiment [4] (setting [7]).

Regarding `C[C@@]12CCCN(C1)c1nc(OC[C@@]34CCCN3C[C@H](F)C4)nc3c(F)c(ncc13)-c1cccc3ccc(F)c(c13)CCC(F)C(=O)N2` (mixture of isomers) [Example 11], the IC50 in experiment [1] (setting [8]) is 155 nM; in experiment [2] (setting [9]), 1050 nM; in experiment [3] (setting [6]) it was 8 nM; in experiment [4] (setting [7]), 12 nM.

With `C[C@@]12CCCN(C1)c1nc(OC[C@@]34CCCN3C[C@H](F)C4)nc3c(F)c(ccc13)-c1cc(O)cc3ccc(F)c(c13)CCC(F)C(=O)N2` (mixture of isomers) [Example 17, 2,2,2-trifluoroacetate salt], the IC50 in experiment [1] (setting [8]) turned out to be 46 nM; in experiment [2] (setting [9]), 405 nM; in experiment [3] (setting [6]), 7 nM; in experiment [4] (setting [7]), 11 nM.

Consider `Cc1cc2[nH]ncc2c2c1CCCCC(=O)N1CC[C@@H]3CCN(C[C@@H]31)c1nc(OC[C@@]34CCCN3C[C@H](F)C4)nc3c(F)c-2ncc13` (mixture of isomers) [Example 63], for which the IC50 came to 59 nM in experiment [1] (setting [8]), 460 nM in experiment [2] (setting [9]), 2 nM in experiment [3] (setting [6]) and 9 nM in experiment [4] (setting [7]).

Turning to `CC12CCCN(C1)c1nc(OC[C@@]34CCCN3C[C@H](F)C4)nc3c(F)c(ncc13)-c1cccc3ccc(F)c(c13)CCOC(=O)N2` (mixture of isomers) [Example 76], the IC50 amounted to 820 nM in experiment [1] (setting [8]), 1710 nM in experiment [2] (setting [9]), 9 nM in experiment [3] (setting [6]) and 15 nM in experiment [4] (setting [7]).

Regarding `O=C1OC[C@H]2C[C@@H]2c2c(Cl)cc3[nH]ncc3c2-c2ncc3c(nc(OC[C@@]45CCCN4C[C@H](F)C5)nc3c2F)N2CCC[C@H](C2)O1` (mixture of isomers) [Example 113], the IC50 in experiment [1] (setting [8]) is 109 nM; in experiment [2] (setting [9]) it was 1180 nM; in experiment [3] (setting [6]), 3 nM; in experiment [4] (setting [7]), 10 nM.

With `O=C1N[C@@H]2CCCCN(C2)c2nc(OC[C@@]34CCCN3C[C@H](F)C4)nc3c(F)c(ncc23)-c2c(c(Cl)cc3[nH]ncc23)CCCC1F` (mixture of isomers) [Example 161], the IC50 was found to be 19.8 nM in experiment [1] (setting [8]), 225 nM in experiment [2] (setting [9]), 4 nM in experiment [3] (setting [6]) and 6 nM in experiment [4] (setting [7]).

On to `O=C1CCCCc2c(Cl)cc3[nH]ncc3c2-c2ncc3c(nc(OC[C@@]45CCCN4C[C@H](F)C5)nc3c2F)N2CCOCC(C1)C2` (mixture of isomers) [Example 230], for which the IC50 was found to be 95.1 nM in experiment [1] (setting [8]), 174 nM in experiment [2] (setting [9]), 9 nM in experiment [3] (setting [6]) and 12 nM in experiment [4] (setting [7]).

On to `CC12COCCN(C1)c1nc(OC[C@@]34CCCN3C[C@H](F)C4)nc3c(F)c(ncc13)-c1c(c(Cl)cc3[nH]ncc13)CCCc1nc2no1` (mixture of isomers) [Example 379], for which the IC50 is 85.3 nM in experiment [1] (setting [10]), 404 nM in experiment [2] (setting [11]), 3 nM in experiment [3] (setting [12]) and 9 nM in experiment [4] (setting [13]).

For `Fc1c2ncc3c(nc(OC[C@@]45CCCN4C[C@H](F)C5)nc13)N1CCCCC(C1)c1noc(n1)CCCc1c(Cl)cc3[nH]ncc3c1-2` (mixture of isomers) [Example 382], the IC50 in experiment [1] (setting [10]) was found to be 16.8 nM; in experiment [2] (setting [11]) it was 1480 nM; in experiment [3] (setting [12]) it was 3 nM; in experiment [4] (setting [13]), 5 nM.

As to `O=C1CCCCc2c(Cl)cc3[nH]ncc3c2-c2ncc3c(nc(OC[C@@]45CCCN4C[C@H](F)C5)nc3c2F)N2CCOCC(C2)C1O` (mixture of isomers) [Example 384], the IC50 in experiment [1] (setting [10]) came to 22.3 nM; in experiment [2] (setting [11]) it was 109 nM; in experiment [3] (setting [12]), 6 nM; in experiment [4] (setting [13]) it was 10 nM.

Take `OC1CCCCc2c(Cl)cc3[nH]ncc3c2-c2ncc3c(nc(OC[C@@]45CCCN4C[C@H](F)C5)nc3c2F)N2CCC[C@@H](C1)C2` (mixture of isomers) [Example 385, bis(2,2,2-trifluoroacetate) salt]: the IC50 in experiment [1] (setting [10]) came out at 137 nM; in experiment [2] (setting [11]), 211 nM; in experiment [3] (setting [12]), 16 nM; in experiment [4] (setting [13]), 31 nM.

As for `Cc1cc2[nH]ncc2c2c1CCCOC(=O)O[C@H]1CN(CC[C@H]1F)c1nc(OC[C@@]34CCCN3C[C@H](F)C4)nc3c(F)c-2ncc13` (racemic) [Example 93], the IC50 stood at 180 nM in experiment [1] (setting [8]), 1250 nM in experiment [2] (setting [9]), 5 nM in experiment [3] (setting [6]) and 14 nM in experiment [4] (setting [7]).

In the case of `O=C1CCCCc2c(Cl)cc3[nH]ncc3c2-c2ncc3c(nc(OC[C@@]45CCCN4C[C@H](F)C5)nc3c2F)N2CCC3CN1[C@H]3C2` (mixture of isomers) [Example 164], the IC50 in experiment [1] (setting [8]) is 236 nM; in experiment [2] (setting [9]) it was 3100 nM; in experiment [3] (setting [6]), 7 nM; in experiment [4] (setting [7]), 10 nM.

With `O=C1CCCCc2c(Cl)cc3[nH]ncc3c2-c2ncc3c(nc(OC[C@@]45CCCN4C[C@H](F)C5)nc3c2F)N2C[C@@H](O)C[C@H](C2)N1` (racemic) [Example 275, (17R,19S)-9-chloro-30-fluoro-24-(((2R,7aS)-2-fluorotetrahydro-1H-pyrrolo[1,2-a]pyrrol-7a(5H)-yl)methoxy)-19-hydroxy-5,6,16,21,23,25,29-heptaazahexacyclo[24.3.1.1~17,21~.0~2,10~.0~3,7~.0~22,27~]hentriaconta-1(30),2,4,7,9,22,24,26,28-nonaen-15-one], the IC50 in experiment [1] (setting [8]) came out at 53.1 nM; in experiment [2] (setting [9]), 778 nM; in experiment [3] (setting [6]) it was 3 nM; in experiment [4] (setting [7]), 6 nM.

Turning to `[2H]C([2H])([2H])[C@@]12COCCN(C1)c1nc(OC[C@@]34CCCN3C[C@H](F)C4)nc3c(F)c(ncc13)-c1c(c(C)cc3[nH]ncc13)CCCOC(=O)O2` [Example 352, (26S)-32-fluoro-4-(((2R,7aS)-2-fluorotetrahydro-1H-pyrrolo[1,2-a]pyrrol-7a(5H)-yl)methoxy)-18-methyl-26-(~2~H_3_)methyl-23,25,28-trioxa-1,3,5,9,14,15-hexaazahexacyclo[24.4.1.1~6,10~.0~2,7~.0~11,19~.0~12,16~]dotriaconta-2,4,6,8,10(32),11,13,16,18-nonaen-24-one], the IC50 in experiment [1] (setting [8]) stood at 8.2 nM; in experiment [2] (setting [9]), 103 nM; in experiment [3] (setting [6]) it was 2 nM.

As for `O[C@@H]1CCOCCc2c(Cl)cc3[nH]ncc3c2-c2ncc3c(nc(OC[C@@]45CCCN4C[C@H](F)C5)nc3c2F)N2CCC[C@@H]1C2` [Example 404, (16R,17R)-9-Chloro-30-fluoro-24-(((2R,7aS)-2-fluorotetrahydro-1H-pyrrolo[1,2-a]pyrrol-7a(5H)-yl)methoxy)-13-oxa-5,6,21,23,25,29-hexaazahexacyclo[24.3.1.1~17,21~.0~2,10~.0~3,7~.0~22,27~]hentriaconta-1(30),2,4,7,9,22,24,26,28-nonaen-16-ol], the IC50 in experiment [1] (setting [10]) turned out to be 236 nM; in experiment [2] (setting [11]) it was 1570 nM.
